Source: patent US20250250269A1, “HETEROCYCLIC GLP-1 AGONISTS” (Gasherbrum Bio, Inc., priority 2022, published 2025)

Target: T1, GLP-1 Receptor (Homo sapiens, UniProt P43220)
T1 construct: host or cells: HEK293/CRE-Luc (HEK293/GLP1R/CRE-LUC)
Experiment: GLP-1R agonist cAMP stimulation assay (HEK293/GLP1R/CRE-LUC cells, Cisbio cAMP dynamic 2 kit)
Assay type: cell-based
Conditions: HEK293/CRE-Luc cells stably expressing the GLP-1 Receptor, 30 min at 37° C.
Experimental: Activation of GLP-1 receptor is known to stimulate cyclic AMP (cAMP) production in cells which indicates primary coupling to the Gas subunit of the G protein heterotrimeric complex.
To optimize functional activity directed toward Gas coupling, a HEK293/CRE-Luc cell line developed by HDB stably expressing the GLP-1 Receptor was used. 200× concentration of compound working solutions were prepared (Agilent Technologies Bravo) with ½ log serial dilution in 384-well Echo LDV plate (Labcyte, Cat #LP-0200). […] 200× concentration of compound working solutions were moved to 384-well white low volume plate (Greiner, Cat #784075) using Labcyte ECHO550. 1×10^5 cells/mL HEK293/GLP1R/CRE-LUC (HD Biosciences) cell suspensions prepared with assay buffer [DPBS containing 0.5 mM IBMX (Sigma, Cat #15879) and 0.1% BSA (GENVIEW, Cat #FA016-100g)], 10 μL cell suspensions were added to each well of previous generated assay plate which already contains […] compound at 200×concentration using ThermoFisher Multidrop Combi (1000 cells/well). Seal the plate and incubate at 37° C. with 5% CO2 for 30 min.
After incubation the cAMP assay signal was generated using cAMP dynamic 2 Kit (Cisbio). 5 μL cAMP-d2 working solution was added to each well, followed with 5 μL Anti-cAMP antibody-cryptate working solution added to each well using ThermoFisher Multidrop Combi. Incubate at room temperature for 1 hour protected from light. Read the fluorescence at 665 and 615 nm with Reader PerkinElmer EnVision.

T1 sequence (P43220 24-463, species assumed): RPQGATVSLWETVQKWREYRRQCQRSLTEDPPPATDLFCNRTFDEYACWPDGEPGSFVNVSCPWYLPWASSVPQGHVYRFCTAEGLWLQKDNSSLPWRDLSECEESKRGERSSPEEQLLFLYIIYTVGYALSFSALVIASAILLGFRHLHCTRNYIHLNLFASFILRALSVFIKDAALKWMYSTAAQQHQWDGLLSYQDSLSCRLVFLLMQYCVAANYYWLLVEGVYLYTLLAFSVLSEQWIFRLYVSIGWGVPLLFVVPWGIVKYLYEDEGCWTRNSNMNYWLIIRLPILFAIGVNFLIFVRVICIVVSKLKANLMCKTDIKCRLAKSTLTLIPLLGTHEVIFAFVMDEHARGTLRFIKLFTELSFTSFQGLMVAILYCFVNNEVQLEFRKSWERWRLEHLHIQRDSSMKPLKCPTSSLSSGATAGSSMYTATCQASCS

EC50 [nM] | Compound
< 1 | Cc1nnc(-c2ccc3c(nc(CN4CCC(c5cccc6c5O[C@@](C)(c5ccc(Cl)cc5F)O6)CC4)n3C[C@@H]3CCO3)c2F)[nH]1 [Compound 40, 2-((4-((S)-2-(4-chloro-2-fluorophenyl)-2-methylbenzo[d][1,3]dioxol-4-yl)piperidin-1-yl)methyl)-4-fluoro-5-(5-methyl-4H-1,2,4-triazol-3-yl)-1-(((S)-oxetan-2-yl)methyl)-1H-benzo[d]imidazole]
< 1 | C[C@]1(c2ccc(Cl)cc2F)Oc2cccc(C3CCN(Cc4nc5cc(C(=O)NCC(F)(F)F)ncc5n4C[C@@H]4CCO4)CC3)c2O1 [Compound 25, 2-((4-((S)-2-(4-chloro-2-fluorophenyl)-2-methylbenzo[d][1,3]dioxol-4-yl)piperidin-1-yl)methyl)-3-(((S)-oxetan-2-yl)methyl)-N-(2,2,2-trifluoroethyl)-3H-imidazo[4,5-c]pyridine-6-carboxamide]
1 to 100 | C[C@]1(c2ccc(Cl)cn2)Oc2cccc(C3CCN(Cc4nc5cc(-c6noc(=O)[nH]6)cc(F)c5n4C[C@@H]4CCO4)CC3)c2O1 [Compound 37, 3-(2-((4-((S)-2-(5-chloropyridin-2-yl)-2-methylbenzo[d][1,3]dioxol-4-yl)piperidin-1-yl)methyl)-7-fluoro-1-(((S)-oxetan-2-yl)methyl)-1H-benzo[d]imidazol-5-yl)-1,2,4-oxadiazol-5(4H)-one]
< 1 | Cc1ccc(COc2cccc(C3CCN(Cc4nc5cc(-c6nnc(C(F)(F)F)[nH]6)ncc5n4C[C@@H]4CCO4)CC3)n2)nc1OC(F)F [Compound 12, (S)-2-((4-(6-((6-(difluoromethoxy)-5-methylpyridin-2-yl)methoxy)pyridin-2-yl)piperidin-1-yl)methyl)-3-(oxetan-2-ylmethyl)-6-(5-(trifluoromethyl)-4H-1,2,4-triazol-3-yl)-3H-imidazo[4,5-c]pyridine]
< 1 | FC(F)Oc1cc(COc2cccc(C3CCN(Cc4nc5cc(-c6nnc(C(F)(F)F)[nH]6)ncc5n4C[C@@H]4CCO4)CC3)n2)ccn1 [Compound 8, (S)-2-((4-(6-((2-(difluoromethoxy)pyridin-4-yl)methoxy)pyridin-2-yl)piperidin-1-yl)methyl)-3-(oxetan-2-ylmethyl)-6-(5-(trifluoromethyl)-4H-1,2,4-triazol-3-yl)-3H-imidazo[4,5-c]pyridine]
< 1 | Fc1cc(Cl)ccc1COc1nc(C2CCN(Cc3nc4cc(-c5nnc(C(F)(F)F)[nH]5)ncc4n3C[C@@H]3CCO3)CC2)c(F)cc1F [Compound 49, 2-[(4-chloro-2-fluorophenyl)methoxy]-3,5-difluoro-6-{1-[(3-{[(2S)-oxetan-2-yl]methyl}-6-[5-(trifluoromethyl)-4H-1,2,4-triazol-3-yl]-3H-imidazo[4,5-c]pyridin-2-yl)methyl]piperidin-4-yl}pyridine]
< 1 | C[C@]1(c2ccc(Cl)cn2)Oc2cccc(C3CCN(Cc4nc5c(F)c(-c6noc(=O)[nH]6)ccc5n4C[C@@H]4CCO4)CC3)c2O1 [Compound 36, 3-(2-((4-((S)-2-(5-chloropyridin-2-yl)-2-methylbenzo[d][1,3]dioxol-4-yl)piperidin-1-yl)methyl)-4-fluoro-1-(((S)-oxetan-2-yl)methyl)-1H-benzo[d]imidazol-5-yl)-1,2,4-oxadiazol-5(4H)-one]
1 to 100 | O=c1[nH]c(-c2cc(F)c3c(c2)nc(CN2CCC(c4cccc(OCc5ccc(Cl)cc5F)n4)CC2)n3C[C@@H]2CCO2)no1 [Compound 38, (S)-3-(2-((4-(6-((4-chloro-2-fluorobenzyl)oxy)pyridin-2-yl)piperidin-1-yl)methyl)-7-fluoro-1-(oxetan-2-ylmethyl)-1H-benzo[d]imidazol-5-yl)-1,2,4-oxadiazol-5(4H)-one]
< 1 | FC(F)Oc1ccc(COc2cccc(C3CCN(Cc4nc5cc(-c6nnc(C(F)(F)F)[nH]6)ncc5n4C[C@@H]4CCO4)CC3)n2)cn1 [Compound 7, 2-{[6-(difluoromethoxy)pyridin-3-yl]methoxy}-6-{1-[(3-{[(2S)-oxetan-2-yl]methyl}-6-[5-(trifluoromethyl)-4H-1,2,4-triazol-3-yl]-3H-imidazo[4,5-c]pyridin-2-yl)methyl]piperidin-4-yl}pyridine]
< 1 | Fc1ccc(COc2cccc(C3CCN(Cc4nc5cc(-c6nnc(C(F)(F)F)[nH]6)ncc5n4C[C@@H]4CCO4)CC3)n2)c2c1OCO2 [Compound 17, (S)-2-((4-(6-((7-fluorobenzo[d][1,3]dioxol-4-yl)methoxy)pyridin-2-yl)piperidin-1-yl)methyl)-3-(oxetan-2-ylmethyl)-6-(5-(trifluoromethyl)-4H-1,2,4-triazol-3-yl)-3H-imidazo[4,5-c]pyridine]
< 1 | N#Cc1nnc(-c2cc3nc(CN4CC=C(c5ccc(F)c(OCc6ccc(Cl)cc6F)c5)CC4)n(C[C@@H]4CCO4)c3cn2)[nH]1 [Compound 33, (S)-5-(2-((4-(3-((4-chloro-2-fluorobenzyl)oxy)-4-fluorophenyl)-3,6-dihydropyridin-1(2H)-yl)methyl)-3-(oxetan-2-ylmethyl)-3H-imidazo[4,5-c]pyridin-6-yl)-4H-1,2,4-triazole-3-carbonitrile]
< 1 | C[C@]1(c2ccc(Cl)cc2F)Oc2cccc(C3=CCN(Cc4nc5cc(-c6nnc(C(F)(F)F)[nH]6)cnc5n4C[C@@H]4CCO4)CC3)c2O1 [Compound 45, 2-((4-((S)-2-(4-chloro-2-fluorophenyl)-2-methylbenzo[d][1,3]dioxol-4-yl)-3,6-dihydropyridin-1(2H)-yl)methyl)-3-(((S)-oxetan-2-yl)methyl)-6-(5-(trifluoromethyl)-4H-1,2,4-triazol-3-yl)-3H-imidazo[4,5-b]pyridine]
< 1 | C[C@]1(c2ccc(Cl)cn2)Oc2cccc([C@H]3CCN(Cc4nc5cc(-c6nnc(C(F)(F)F)[nH]6)ncc5n4C[C@@H]4CCO4)C[C@@H]3F)c2O1 (single isomer, unassigned) [Compound 62]
< 1 | Fc1cc(Cl)ccc1COc1nc(N2CCN(Cc3nc4cc(-c5nnc(C(F)(F)F)[nH]5)ncc4n3C[C@@H]3CCO3)CC2)c(F)cc1F [Compound 48, 1-{6-[(4-chloro-2-fluorophenyl)methoxy]-3,5-difluoropyridin-2-yl}-4-[(3-{[(2S)-oxetan-2-yl]methyl}-6-[5-(trifluoromethyl)-4H-1,2,4-triazol-3-yl]-3H-imidazo[4,5-c]pyridin-2-yl)methyl]piperazine]
< 1 | Cc1ccc(COc2cccc(C3CCN(Cc4nc5cc(-c6nnc(C(F)(F)F)[nH]6)ncc5n4C[C@@H]4CCO4)CC3)n2)nn1 [Compound 21, 3-methyl-6-{[(6-{1-[(3-{[(2S)-oxetan-2-yl]methyl}-6-[5-(trifluoromethyl)-4H-1,2,4-triazol-3-yl]-3H-imidazo[4,5-c]pyridin-2-yl)methyl]piperidin-4-yl}pyridin-2-yl)oxy]methyl}pyridazine]
< 1 | FC(F)(F)c1nnc(-c2cc3nc(CN4CCC(c5cccc(OCc6nc7ccccc7s6)n5)CC4)n(C[C@@H]4CCO4)c3cn2)[nH]1 [Compound 20, (S)-2-(((6-(1-((3-(oxetan-2-ylmethyl)-6-(5-(trifluoromethyl)-4H-1,2,4-triazol-3-yl)-3H-imidazo[4,5-c]pyridin-2-yl)methyl)piperidin-4-yl)pyridin-2-yl)oxy)methyl)benzo[d]thiazole]
< 1 | Cc1ccc(C2(C)Oc3cccc(C4CCN(Cc5nc6cc(-c7nnc(C(F)(F)F)[nH]7)ncc6n5C[C@@H]5CCO5)CC4)c3O2)cn1 (stereo partly drawn) [Compound 55, 2-methyl-5-[2-methyl-4-{1-[(3-{[(2S)-oxetan-2-yl]methyl}-6-[5-(trifluoromethyl)-4H-1,2,4-triazol-3-yl]-3H-imidazo[4,5-c]pyridin-2-yl)methyl]piperidin-4-yl}-2H-1,3-benzodioxol-2-yl]pyridine]
< 1 | Fc1cc(Cl)ccc1COc1ccc(F)c(C2CCN(Cc3nc4cc(-c5nnc(C(F)(F)F)[nH]5)ncc4n3C[C@@H]3CCO3)CC2)n1 [Compound 47, 6-[(4-chloro-2-fluorophenyl)methoxy]-3-fluoro-2-{1-[(3-{[(2S)-oxetan-2-yl]methyl}-6-[5-(trifluoromethyl)-4H-1,2,4-triazol-3-yl]-3H-imidazo[4,5-c]pyridin-2-yl)methyl]piperidin-4-yl}pyridine]
< 1 | COCCNC(=O)c1cc2nc(CN3CCC(c4cccc5c4O[C@@](C)(c4ccc(Cl)cc4F)O5)CC3)n(C[C@@H]3CCO3)c2cn1 [Compound 26, 2-((4-((S)-2-(4-chloro-2-fluorophenyl)-2-methylbenzo[d][1,3]dioxol-4-yl)piperidin-1-yl)methyl)-N-(2-methoxyethyl)-3-(((S)-oxetan-2-yl)methyl)-3H-imidazo[4,5-c]pyridine-6-carboxamide]
< 1 | COc1cc(Cl)ccc1COc1cc(C2=CCN(Cc3nc4cc(-c5nnc(C(F)(F)F)[nH]5)ncc4n3C[C@@H]3CCO3)CC2)ccc1F [Compound 31, (S)-2-((4-(3-((4-chloro-2-methoxybenzyl)oxy)-4-fluorophenyl)-3,6-dihydropyridin-1(2H)-yl)methyl)-3-(oxetan-2-ylmethyl)-6-(5-(trifluoromethyl)-4H-1,2,4-triazol-3-yl)-3H-imidazo[4,5-c]pyridine]
